Assay: xn = mol fraction of the nth substance listed
Details: 101.3 kPa, Liquid

Clc1ccccc1 [chlorobenzene] + COC(=O)OC
Details | mass density [kg/m3] | viscosity [mPa·s]
293.15 K, x2 = 0 | 1106.74 | 0.8084
293.15 K, x2 = 0.1225 | 1102.19 | 0.7794
293.15 K, x2 = 0.238 | 1097.84 | 0.7586
293.15 K, x2 = 0.3499 | 1093.69 | 0.7315
293.15 K, x2 = 0.4545 | 1089.67 | 0.7132
293.15 K, x2 = 0.5559 | 1085.85 | 0.698
293.15 K, x2 = 0.6518 | 1082.22 | 0.6805
293.15 K, x2 = 0.7445 | 1078.84 | 0.6567
293.15 K, x2 = 0.8332 | 1075.58 | 0.6449
293.15 K, x2 = 0.9182 | 1072.42 | 0.6244
298.15 K, x2 = 0 | 1101.33 | 0.7422
298.15 K, x2 = 0.1225 | 1096.65 | 0.7318
298.15 K, x2 = 0.238 | 1092.16 | 0.7193
298.15 K, x2 = 0.3499 | 1087.88 | 0.6956
298.15 K, x2 = 0.4545 | 1083.72 | 0.6864
298.15 K, x2 = 0.5559 | 1079.81 | 0.6627
298.15 K, x2 = 0.6518 | 1076.05 | 0.6427
298.15 K, x2 = 0.7445 | 1072.55 | 0.6226
298.15 K, x2 = 0.8332 | 1069.17 | 0.6017
298.15 K, x2 = 0.9182 | 1065.93 | 0.5856
303.15 K, x2 = 0 | 1095.96 | 0.7053
303.15 K, x2 = 0.1225 | 1091.12 | 0.6862
303.15 K, x2 = 0.238 | 1086.51 | 0.6624
303.15 K, x2 = 0.3499 | 1082.09 | 0.646
303.15 K, x2 = 0.4545 | 1077.8 | 0.6408
303.15 K, x2 = 0.5559 | 1073.76 | 0.6134
303.15 K, x2 = 0.6518 | 1069.91 | 0.6014
303.15 K, x2 = 0.7445 | 1066.28 | 0.5781
303.15 K, x2 = 0.8332 | 1062.78 | 0.5632
303.15 K, x2 = 0.9182 | 1059.45 | 0.5487
313.15 K, x2 = 0 | 1085.06 | 0.631
313.15 K, x2 = 0.1225 | 1079.97 | 0.6145
313.15 K, x2 = 0.238 | 1075.08 | 0.5875
313.15 K, x2 = 0.3499 | 1070.36 | 0.5709
313.15 K, x2 = 0.4545 | 1065.81 | 0.563
313.15 K, x2 = 0.5559 | 1061.54 | 0.5423
313.15 K, x2 = 0.6518 | 1057.46 | 0.5322
313.15 K, x2 = 0.7445 | 1053.56 | 0.5192
313.15 K, x2 = 0.8332 | 1049.86 | 0.4992
313.15 K, x2 = 0.9182 | 1046.32 | 0.4874
323.15 K, x2 = 0 | 1074.26 | 0.5677
323.15 K, x2 = 0.1225 | 1068.8 | 0.5546
323.15 K, x2 = 0.238 | 1063.63 | 0.5273
323.15 K, x2 = 0.3499 | 1058.61 | 0.5145
323.15 K, x2 = 0.4545 | 1053.8 | 0.5039
323.15 K, x2 = 0.5559 | 1049.32 | 0.4878
323.15 K, x2 = 0.6518 | 1044.96 | 0.4729
323.15 K, x2 = 0.7445 | 1040.83 | 0.4591
323.15 K, x2 = 0.8332 | 1036.88 | 0.4468
323.15 K, x2 = 0.9182 | 1033.12 | 0.4365
333.15 K, x2 = 0 | 1063.32 | 0.5069
333.15 K, x2 = 0.1225 | 1057.53 | 0.4954
333.15 K, x2 = 0.238 | 1052.07 | 0.4791
333.15 K, x2 = 0.3499 | 1046.76 | 0.4619
333.15 K, x2 = 0.4545 | 1041.66 | 0.452
333.15 K, x2 = 0.5559 | 1036.93 | 0.4401
333.15 K, x2 = 0.6518 | 1032.33 | 0.4277
333.15 K, x2 = 0.7445 | 1027.92 | 0.415
333.15 K, x2 = 0.8332 | 1023.72 | 0.4046
333.15 K, x2 = 0.9182 | 1019.74 | 0.3949
343.15 K, x2 = 0 | 1052.44 | 0.4658
343.15 K, x2 = 0.1225 | 1046.33 | 0.455
343.15 K, x2 = 0.238 | 1040.54 | 0.4326
343.15 K, x2 = 0.3499 | 1034.93 | 0.4242
343.15 K, x2 = 0.4545 | 1029.51 | 0.4142
343.15 K, x2 = 0.5559 | 1024.52 | 0.3978
343.15 K, x2 = 0.6518 | 1019.67 | 0.3879
343.15 K, x2 = 0.7445 | 1014.99 | 0.377
343.15 K, x2 = 0.8332 | 1010.53 | 0.3678
343.15 K, x2 = 0.9182 | 1006.31 | 0.3609
